From US10934310B2, “Inhibitors of Bruton's tyrosine kinase and method of their use” (JANSSEN PHARMACEUTICA NV, priority 2015, dated 2021)

target: unphosphorylated-BTK kinase domain (UP-BTK), GST-tagged human BTK (389-659aa) (Homo sapiens (Human), UniProt Q06187); test: BTK Kinase Lanthascreen Binding Assay; conditions: Lanthascreen binding, 60 minutes incubation; pIC50 = negative log of the IC50 in molar
Description: BTK Kinase Lanthascreen Binding Assay:
A BTK kinase lanthascreen binding assay monitors compound binding to unphosphorylated-BTK kinase domain (UP-BTK), by competing with a fluorescent labeled tracer. […] Data were analyzed using Xlfit™ version 5.3 from ID Business Solutions (Guildford), Microsoft Excel add-in. pIC50 refers to the negative log of the IC50 in molar.

Sequence of unphosphorylated-BTK kinase domain (UP-BTK), GST-tagged human BTK (389-659aa) (Q06187 389-659): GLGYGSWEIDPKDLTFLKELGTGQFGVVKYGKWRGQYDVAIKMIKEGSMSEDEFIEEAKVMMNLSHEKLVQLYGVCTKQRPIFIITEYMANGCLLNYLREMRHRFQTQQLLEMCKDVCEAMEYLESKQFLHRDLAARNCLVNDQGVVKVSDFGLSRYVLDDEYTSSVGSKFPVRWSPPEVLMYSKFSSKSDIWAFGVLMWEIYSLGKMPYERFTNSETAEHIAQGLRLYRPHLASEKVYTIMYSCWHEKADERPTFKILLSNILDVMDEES

BTK_I_binding pIC50	Compound
6.29	C=CC(=O)N[C@@H]1CCN(C(=O)c2sc3nccc4c3c2NC(=O)N4c2ccc(Oc3ccccc3)cc2C)C1 [Example 434, (R)—N-(1-(5-(2-Methyl-4-phenoxyphenyl)-4-oxo-4,5-dihydro-3H-1-thia-3,5,8-triazaacenaphthylene-2-carbonyl)pyrrolidin-3-yl)acrylamide]
6.39	C=CC(=O)N[C@@H]1CCCC[C@H]1NC(=O)c1sc2nccc3c2c1NC(=O)N3c1cnc(Oc2ccccc2)nc1 [Example 338, N-((1R,2R)-2-Acrylamidocyclohexyl)-4-oxo-5-(2-phenoxypyrimidin-5-yl)-4,5-dihydro-3H-1-thia-3,5,8-triazaacenaphthylene-2-carboxamide]
7.64	CCC(=O)N[C@@H]1CC[C@@H](NC(=O)c2sc3nccc4c3c2NC(=O)N4c2cnc(Oc3ccccc3)cc2C)C1 (single isomer, unassigned) [Example 388, 5-(*S)-(4-Methyl-6-phenoxypyridin-3-yl)-4-oxo-N-((1R,3R)-3-propionamidocyclopentyl)-4,5-dihydro-3H-1-thia-3,5,8-triazaacenaphthylene-2-carboxamide]
6.13	C=CC(=O)N[C@H]1CCCC[C@H]1NC(=O)c1sc2nccc3c2c1NC(=O)N3c1ccc(Oc2cccnn2)cc1C [Example 406, N-((1R,2S)-2-Acrylamidocyclohexyl)-5-(2-methyl-4-(pyridazin-3-yloxy)phenyl)-4-oxo-4,5-dihydro-3H-1-thia-3,5,8-triazaacenaphthylene-2-carboxamide]
6.70	Cc1cc(OC2CCCC2)ncc1N1C(=O)Nc2c(C(=O)N[C@@H]3CC[C@H](N)C3)sc3nccc1c23 (single isomer, unassigned) [Example 394, N-((1R,3S)-3-Aminocyclopentyl)-5-(*S)-(6-(cyclopentyloxy)-4-methylpyridin-3-yl)-4-oxo-4,5-dihydro-3H-1-thia-3,5,8-triazaacenaphthylene-2-carboxamide]
6.63	C=CC(=O)N[C@H]1CCC[C@H]1NC(=O)c1sc2nccc3c2c1NC(=O)N3c1ccc(Oc2ccc(C)nc2)nc1C [Example 495, N-((1R,2S)-2-Acrylamidocyclopentyl)-5-(2-methyl-6-((6-methylpyridin-3-yl)oxy)pyridin-3-yl)-4-oxo-4,5-dihydro-3H-1-thia-3,5,8-triazaacenaphthylene-2-carboxamide]
7.54	C=CC(=O)N[C@H]1CCC[C@H]1NC(=O)c1sc2nccc3c2c1NC(=O)N3c1ccc(Oc2ccc(C)nc2)cc1C [Example 384, N-((1R,2S)-2-Acrylamidocyclopentyl)-5-(2-methyl-4-((6-methylpyridin-3-yl)oxy)phenyl)-4-oxo-4,5-dihydro-3H-1-thia-3,5,8-triazaacenaphthylene-2-carboxamide]

same assay, conditions: compound, 50 nM Tracer 236, 2 nM anti-GST antibody, 60 minutes; pIC50 = negative log of the IC50 in molar

Compound	BTK_I_binding pIC50
C=CC(=O)N[C@@H]1CC[C@@H](NC(=O)c2sc3nccc4c3c2NC(=O)N4c2ccc(Oc3ccccc3)cc2C)C1 (single isomer, unassigned) [Example 175, N-((1R,3R)-3-Acrylamidocyclopentyl)-5-(*S)-(2-methyl-4-phenoxyphenyl)-4-oxo-4,5-dihydro-3H-1-thia-3,5,8-triazaacenaphthylene-2-carboxamide]	8.05
CC(=O)N[C@H]1CCC[C@@H]1NC(=O)c1sc2nccc3c2c1NC(=O)N3c1ccc(Oc2ccccc2)cc1C (single isomer, unassigned) [Example 134, N-((1S,2S)-2-Acetamidocyclopentyl)-5-(*S)-(2-methyl-4-phenoxyphenyl)-4-oxo-4,5-dihydro-3H-1-thia-3,5,8-triazaacenaphthylene-2-carboxamide]	6.76
C=CC(=O)N[C@@H]1CCCC[C@@H]1NC(=O)c1sc2nccc3c2c1NC(=O)N3c1ccc(Oc2ccccc2)cc1 [Example 124, N-((1S,2R)-2-Acrylamidocyclohexyl)-4-oxo-5-(4-phenoxyphenyl)-4,5-dihydro-3H-1-thia-3,5,8-triazaacenaphthylene-2-carboxamide]	6.71
O=C(NCC1(O)CCCCC1)c1sc2nccc3c2c1NC(=O)N3c1ccc(Oc2ccccc2)cc1 [Example 152, N-((1-Hydroxycyclohexyl)methyl)-4-oxo-5-(4-phenoxyphenyl)-4,5-dihydro-3H-1-thia-3,5,8-triazaacenaphthylene-2-carboxamide]	6.25
C=CC(=O)N[C@@H]1CCC[C@@H]1NC(=O)c1sc2nccc3c2c1NC(=O)N3c1ccc(Oc2ccccc2)cc1C (single isomer, unassigned) [Example 114, N-((1S,2R)-2-Acrylamidocyclopentyl)-5-(*S)-(2-methyl-4-phenoxyphenyl)-4-oxo-4,5-dihydro-3H-1-thia-3,5,8-triazaacenaphthylene-2-carboxamide]	6.81
C=CC(=O)N[C@H]1CCC[C@@H]1NC(=O)c1sc2nccc3c2c1NC(=O)N3c1ccc(Oc2ccccc2)cc1C (single isomer, unassigned) [Example 56, N-((1S,2S)-2-Acrylamidocyclopentyl)-5-(*R)-(2-methyl-4-phenoxyphenyl)-4-oxo-4,5-dihydro-3H-1-thia-3,5,8-triazaacenaphthylene-2-carboxamide]	5.77
C=CC(=O)N[C@H]1CCC[C@H]1NC(=O)c1sc2nccc3c2c1NC(=O)N3c1cnc(Oc2ccccc2)cc1C (single isomer, unassigned) [Example 171, N-((1R,2S)-2-Acrylamidocyclopentyl)-5-(*S)-(4-methyl-6-phenoxypyridin-3-yl)-4-oxo-4,5-dihydro-3H-1-thia-3,5,8-triazaacenaphthylene-2-carboxamide]	8.19
Cc1cc(OC(C)C)ccc1N1C(=O)Nc2c(C(=O)N[C@H]3CC[C@@H](NC(=O)CN(C)C)C3)sc3nccc1c23 [Example 158, N-((1S,3R)-3-(2-(Dimethylamino)acetamido)cyclopentyl)-5-(4-isopropoxy-2-methylphenyl)-4-oxo-4,5-dihydro-3H-1-thia-3,5,8-triazaacenaphthylene-2-carboxamide]	6.11

More lines, now with the values ahead:

BTK_I_binding pIC50	Compound
6.76	C=CC(=O)N[C@@H]1CCCC[C@H]1NC(=O)c1sc2nccc3c2c1NC(=O)N3c1ccnc(-c2ccccc2)c1 [Example 227, N-((1R,2R)-2-Acrylamidocyclohexyl)-4-oxo-5-(2-phenylpyridin-4-yl)-4,5-dihydro-3H-1-thia-3,5,8-triazaacenaphthylene-2-carboxamide]
6.45	Cc1cc(Oc2ccccc2)ccc1N1C(=O)Nc2c(C(=O)N[C@H]3CC[C@H](N)C3)sc3nccc1c23 (single isomer, unassigned) [Example 259, N-((1S,3S)-3-Aminocyclopentyl)-5-(*S)-(2-methyl-4-phenoxyphenyl)-4-oxo-4,5-dihydro-3H-1-thia-3,5,8-triazaacenaphthylene-2-carboxamide]
6.47	C=CC(=O)N[C@@H]1CCCC[C@H]1NC(=O)c1sc2nccc3c2c1NC(=O)N3c1ccc(Oc2ccccc2)nc1 [Example 239, N-((1R,2R)-2-Acrylamidocyclohexyl)-4-oxo-5-(6-phenoxypyridin-3-yl)-4,5-dihydro-3H-1-thia-3,5,8-triazaacenaphthylene-2-carboxamide]

same assay, conditions: read-out: BTK_I_binding pIC50 (converted)

Compound	IC50 [µM]
Cc1cc(Oc2ccccc2)ccc1N1C(=O)Nc2c(C(=O)N[C@H]3CCCC[C@@H]3O)sc3nccc1c23 (racemic) [Example 36, N-((1RS,2RS)-2-Hydroxycyclohexyl)-5-(2-methyl-4-phenoxyphenyl)-4-oxo-4,5-dihydro-3H-1-thia-3,5,8-triazaacenaphthylene-2-carboxamide]	0.191
C=CC(=O)NC1CCC(NC(=O)c2sc3nccc4c3c2NC(=O)N4c2ccc(Oc3ccccc3)cc2)C1 (racemic) [Example 109, N-((1RS,3RS)-3-Acrylamidocyclopentyl)-4-oxo-5-(4-phenoxyphenyl)-4,5-dihydro-3H-1-thia-3,5,8-triazaacenaphthylene-2-carboxamide]	0.0141
C=CC(=O)N[C@@H]1CCC[C@@H](NC(=O)c2sc3nccc4c3c2NC(=O)N4c2ccc(Oc3ccccc3)cn2)C1 (racemic) [Example 216, N-((1RS,3RS)-3-Acrylamidocyclohexyl)-4-oxo-5-(5-phenoxypyridin-2-yl)-4,5-dihydro-3H-1-thia-3,5,8-triazaacenaphthylene-2-carboxamide]	0.0363

Further lines, results first:

IC50 [µM]	Compound
> 1	C=CC(=O)N[C@@H]1CCC[C@H](NC(=O)c2sc3nccc4c3c2NC(=O)N4c2ccc(Oc3ccccc3)nc2C)C1 (single isomer, unassigned) [Example 411, N-((1S,3R)-3-Acrylamidocyclohexyl)-5-(*S)-(2-methyl-6-phenoxypyridin-3-yl)-4-oxo-4,5-dihydro-3H-1-thia-3,5,8-triazaacenaphthylene-2-carboxamide]
> 1	C=CC(=O)N[C@H]1CC[C@@H](NC(=O)c2sc3nccc4c3c2NC(=O)N4c2ccc(OC(C)C)cc2C)C1 (single isomer, unassigned) [Example 276, N-((1R,3S)-3-Acrylamidocyclopentyl)-5-(*R)-(4-isopropoxy-2-methylphenyl)-4-oxo-4,5-dihydro-3H-1-thia-3,5,8-triazaacenaphthylene-2-carboxamide]
0.0288	C=CC(=O)N[C@H]1CCC[C@H]1NC(=O)c1sc2nccc3c2c1NC(=O)N3c1ccc(Oc2cccc(C)n2)cn1 [Example 479, N-((1R,2S)-2-Acrylamidocyclopentyl)-5-(5-((6-methylpyridin-2-yl)oxy)pyridin-2-yl)-4-oxo-4,5-dihydro-3H-1-thia-3,5,8-triazaacenaphthylene-2-carboxamide]
> 1	CCC(=O)N[C@H]1CCC[C@H](NC(=O)c2sc3nccc4c3c2NC(=O)N4c2cnc(Oc3ccccc3)cc2C)C1 (single isomer, unassigned) [Example 416, 5-(*S)-(4-Methyl-6-phenoxypyridin-3-yl)-4-oxo-N-((1S,3R)-3-propionamidocyclohexyl)-4,5-dihydro-3H-1-thia-3,5,8-triazaacenaphthylene-2-carboxamide]
